We go through 4 compounds from paper PMC6720008, “A Novel Peptide Ameliorates LPS-Induced Intestinal Inflammation and Mucosal Barrier Damage via Its Antioxidant and Antiendotoxin Effects” (International Journal of Molecular Sciences, 2019).

The nature of data set [1]: Ex vivo stability in plasma. Type of data set: in vitro ADME, rat. The protocol:
Figure 2 The mean plasma concentrations of LL-37, TP5, and LTP over times. The concentration of each target peptide in plasma in vitro at the selected times was quantified by HPLC.
Rat plasma was collected from healthy adult rats by centrifugation of whole blood samples. LL-37, TP5, and LTP were directly added to rat plasma (10 μg/mL), after which the plasma samples were incubated in a 37 °C water bath. At different times, the samples were collected into pre-chilled tubes which contained 1 mL of acidic acetone (hydrochloric acid/acetone/H2O, 1:40:5, by volume). Subsequently, the mixture was centrifuged at 2 × 10^4 rpm at 4 °C for 20 min. The precipitates were dried in vacuo, after which the dried precipitates were dissolved in 0.5 mL of 1 M acetic acid. The peptide analysis was carried out according to the protocol for the study of TP5 using HPLC [64]. The half-lives of the peptides were calculated by a logarithm-linear regression analysis of the peptide concentrations.

Data set [2] concerns RAW264.7 macrophage cells. The note with it: CCK-8, 24 h or 72 h.
Method: RAW264.7 cells were pre-seeded in DMEM medium overnight. The cells were treated with various concentrations of peptides or without peptides at 37 °C and 5% CO2 for 24 h (A) or 72 h (B). They were incubated with CCK-8 solution for 4 h, and then, they were measured at 450 nm. Data are given as the mean value ± standard error from eight biological replicates. *: p ≤ 0.05, **: p ≤ 0.01, ***: p ≤ 0.001.
The murine macrophage cell line RAW264.7 was purchased from the Shanghai Cell Bank, the Institute of Cell Biology, China Academy of Sciences (Shanghai, China). RAW264.7 cells were cultured in Dulbecco’s modified Eagle’s medium (DMEM; Hyclone, Logan, UT, USA) supplemented with 10% (v/v) foetal bovine serum (Bioscience) and 1% (v/v) penicillin/streptomycin (Hyclone) in a 37 °C humidified incubator containing 5% CO2.
The viability of peptide-treated RAW264.7 cells was measured using the Cell Counting Kit-8 (CCK-8) Assay Kit (Dojindo, Japan) [63]. The cells were pre-seeded on a 96-well plate at a density of 3 × 10^4 cells/mL overnight. […] The absorbance at 450 nm was measured with a microplate reader. Cell viability was calculated as: Cell viability (%) = (OD450 (sample)/OD450(control)) × 100%(1) where OD450 (sample) is the absorbance at 450 nm of the cells with peptides treated, and OD450 (control) is the absorbance at 450 nm of the cells without peptides treated.
Data set [3] can be described thus: In vitro LPS neutralization, chromogenic end-point TAL assay. Particulars: LPS 1.0 U/mL, peptide 0 to 64 μg/mL, 37 °C 15 min, absorbance 540 nm, three biological replicates. Type of data set: biochemical. The protocol:
Figure 9 LPS neutralization activity of LTP in vitro and in vivo. (A) The LPS concentration in mouse plasma. (B) In-vitro LPS neutralization by LTP. LPS neutralization activity of LTP, LL-37, TP5, and PMB were determined using the chromogenic in vitro TAL assay. Data are presented as the mean value ± standard error from three biological replicates. *: p ≤ 0.05, ****: p ≤ 0.0001.
The neutralization of LPS by the peptides was detected using a quantitative Chromogenic End-point Tachypleus Amebocyte Lysate (CE TAL) assay with the QCL-1000 kit (Xiamen, China). Experiments were carried out according to the institutional guidelines. A constant concentration of LPS (1.0 U/mL final concentration) was incubated with different concentrations of polymyxin B (PMB) or the peptides (0 to 64 μg/mL final concentration) at 37 °C for 15 min in the wells of pyrogenic sterile microliters plates. Subsequently, the mixtures were incubated at 37 °C for 6 min in the presence of TAL assay reagent, after which the absorbances were measured at 540 nm.

Where [4] appears, read: rat plasma, peptide 10 μg/mL, 37 °C water bath, HPLC, logarithm-linear regression, mean ± standard error, three biological replicates, read-out: t1/2.

Read-outs that look alike come from different tables or passages of the source. Ends that are not written are not given here.

As for RKDVY [TP5, Thymopentin], the half-life at 10 μg/mL in data set [1] (setting [4]) was found to be 0.022 ± 0.004 h. The metabolised at 5 min, 10 μg/mL in data set [1] (rat plasma, peptide 10 μg/mL, 37 °C, HPLC, three biological replicates, read-out: decrease of plasma concentration after incubation for 5 min) is 95%.

In data set [1] (rat, plasma), `CC[C@H](C)[C@H](NC(=O)[C@H](CCCCN)NC(=O)[C@H](CCC(=O)O)NC(=O)[C@H](CCCCN)NC(=O)[C@H](CO)NC(=O)[C@H](CCCCN)NC(=O)[C@H](CCCNC(=N)N)NC(=O)[C@H](Cc1ccccc1)NC(=O)[C@H](Cc1ccccc1)NC(=O)[C@H](CC(=O)O)NC(=O)CNC(=O)[C@H](CC(C)C)NC(=O)[C@@H](N)CC(C)C)C(=O)NCC(=O)N[C@@H](CCCCN)C(=O)N[C@@H](CCC(=O)O)C(=O)N[C@@H](Cc1ccccc1)C(=O)N[C@@H](CCCCN)C(=O)N[C@@H](CCCNC(=N)N)C(=O)N[C@H](C(=O)N[C@H](C(=O)N[C@@H](CCC(N)=O)C(=O)N[C@@H](CCCNC(=N)N)C(=O)N[C@H](C(=O)N[C@@H](CCCCN)C(=O)N[C@@H](CC(=O)O)C(=O)N[C@@H](Cc1ccccc1)C(=O)N[C@@H](CC(C)C)C(=O)N[C@@H](CCCNC(=N)N)C(=O)N[C@@H](CC(N)=O)C(=O)N[C@@H](CC(C)C)C(=O)N[C@H](C(=O)N1CCC[C@H]1C(=O)N[C@@H](CCCNC(=N)N)C(=O)N[C@H](C(=O)N[C@@H](CCC(=O)O)C(=O)N[C@@H](CO)C(=O)O)[C@@H](C)O)C(C)C)[C@@H](C)CC)C(C)C)[C@@H](C)CC` [LL-37] registered a half-life at 10 μg/mL of 4.04 ± 0.752 h.

IGKEFKRIVQRIKDFLRNLVPRTERKDVY [LTP]: the half-life in plasma t1/2 turned out to be 4 h. Further, in data set [2] (eight biological replicates), the “cytotoxicity on RAW264.7 cells compared with the parental peptides” value is “lower cytotoxicity than LL-37 and TP5”. In addition, the “cytotoxicity towards RAW264.7 cells” value in data set [2] (highest concentration of 60 μg/mL, 37 °C, 5% CO2, absorbance 450 nm, mean of eight biological replicates) is “no significant cytotoxicity”. In data set [1] (setting [4]), the half-life at 10 μg/mL is 4 ± 0.919 h.

Consider polymyxin B [PMB], for which the “50% binding rate value (LPS neutralization)” value in data set [3] stood at 1 µg/mL.
